From ChEMBL document CHEMBL1201862, “PubChem BioAssay data set” (2004)
Active and inactive are the calls of the source.

Key:
cells = type: functional
Phospholipase A2 = Phospholipase A2 (Homo sapiens, UniProt P04054); type: functional;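 further: confirmatory dose-response counterscreen on phospholipase A2, testing hits that came from an ultra-high-throughput screen for ATG4B inhibitors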
Cysteine protease ATG4B = biological target: T1, Cysteine protease ATG4B (Homo sapiens, UniProt Q9Y4P1); type: functional;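 further: Fluorescence-based dose-response confirmation assay measuring inhibition of ATG4B activity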
T1 sequence (Q9Y4P1 whole entry): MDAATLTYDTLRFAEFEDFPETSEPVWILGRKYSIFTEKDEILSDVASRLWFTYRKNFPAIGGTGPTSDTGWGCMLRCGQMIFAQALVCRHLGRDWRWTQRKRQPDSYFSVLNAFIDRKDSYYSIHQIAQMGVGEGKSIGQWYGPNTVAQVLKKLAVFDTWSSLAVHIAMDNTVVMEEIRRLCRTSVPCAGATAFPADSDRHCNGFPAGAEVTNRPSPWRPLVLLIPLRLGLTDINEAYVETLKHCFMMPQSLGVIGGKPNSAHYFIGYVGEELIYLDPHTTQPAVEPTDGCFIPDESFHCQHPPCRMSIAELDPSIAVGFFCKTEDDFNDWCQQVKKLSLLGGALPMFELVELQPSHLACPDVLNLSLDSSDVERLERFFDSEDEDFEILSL

[1] = NIH-3T3 fibroblast cytotoxicity, dose response, cytotoxicity control, cell-based, fluorescence, Alamar Blue, secondary assay (AID 2327); type: functional;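 further: NIH-3T3 mouse fibroblasts cultured with fluconazole at 8 µg/mL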
[2] = fluconazole-exposed Candida albicans growth modulators – fluorescence, retest, confirmation (AID 2467); type: functional, cell-based
[3] = Trypanosoma cruzi growth suppression in host cells – NIH3T3 host cells, beta-gal luminescence, confirmation (AID 2044); type: functional, cell-based;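 further: intracellular parasites grown in NIH/3T3 mouse fibroblasts as host cells; luminescent beta-galactosidase reporter signal from transgenic T. cruzi replicating inside host cells; inhibitors lower the luminescence signal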
[4] = NIH3T3 cell viability loss – ATP luminescence, mouse fibroblasts, counter-screen, dose response (AID 2010); type: functional, cell-based;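 further: cells exposed to compound for about 90 hours before reading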
[5] = biological target: Heat shock protein HSP 90-alpha (Homo sapiens, UniProt P07900); type: functional, organism-based
[6] = viability loss in THP-1 monocytes – THP-1 cells, cytotoxicity control for Vif-APOBEC3G degradation inhibitor project, dose response (AID 1117359); type: functional; details: THP-1
[7] = biological target: Peroxisome proliferator-activated receptor gamma/Nuclear receptor coactivator 2 (Homo sapiens, UniProt P37231); type: functional;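 further: agonist potency for raising coactivator recruitment to the receptor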
[8] = biological target: Peroxisome proliferator-activated receptor gamma/Nuclear receptor coactivator 1 (Homo sapiens, UniProt P37231); type: functional;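 further: agonist potency as compounds enhance coactivator SRC-1 recruitment to PPARgamma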
[9] = biological target: Peroxisome proliferator-activated receptor gamma/Nuclear receptor coactivator 3 (Homo sapiens, UniProt P37231); type: functional;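 further: agonist potency for raising coactivator recruitment to the receptor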
[10] = biological target: T2, Sentrin-specific protease 8 (Homo sapiens, UniProt Q96LD8); type: functional
T2 sequence (Q96LD8 whole entry): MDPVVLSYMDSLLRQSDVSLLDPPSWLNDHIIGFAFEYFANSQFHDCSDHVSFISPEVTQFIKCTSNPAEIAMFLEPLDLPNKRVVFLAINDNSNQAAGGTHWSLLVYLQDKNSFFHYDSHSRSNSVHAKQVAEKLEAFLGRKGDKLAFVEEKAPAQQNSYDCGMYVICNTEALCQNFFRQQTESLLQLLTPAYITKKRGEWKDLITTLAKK

[11] = biological target: T2, Sentrin-specific protease 8; type: functional; remark: listed apart in the source
[12] = Luminescence Cell-Based Dose Retest to Confirm Inhibitors of Cancer Stem Cells. [Related pubchem assays (depositor defined):AID2717, AID2721]; type: functional; details: Homo sapiens
[13] = biological target: T3, Heat shock factor protein 1 (Mus musculus, UniProt P38532); test: decrease of HSF1-responsive luciferase luminescence – cell-based, NIH3T3, dose retest, confirmation (AID 2382); type: functional;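 further: NIH3T3 fibroblasts with HSF1-driven luciferase reporter stressed by proteasome inhibitor MG132; luminescence from HSF1-driven luciferase expression after 8 hours of MG132 stress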
T3 sequence (P38532 whole entry): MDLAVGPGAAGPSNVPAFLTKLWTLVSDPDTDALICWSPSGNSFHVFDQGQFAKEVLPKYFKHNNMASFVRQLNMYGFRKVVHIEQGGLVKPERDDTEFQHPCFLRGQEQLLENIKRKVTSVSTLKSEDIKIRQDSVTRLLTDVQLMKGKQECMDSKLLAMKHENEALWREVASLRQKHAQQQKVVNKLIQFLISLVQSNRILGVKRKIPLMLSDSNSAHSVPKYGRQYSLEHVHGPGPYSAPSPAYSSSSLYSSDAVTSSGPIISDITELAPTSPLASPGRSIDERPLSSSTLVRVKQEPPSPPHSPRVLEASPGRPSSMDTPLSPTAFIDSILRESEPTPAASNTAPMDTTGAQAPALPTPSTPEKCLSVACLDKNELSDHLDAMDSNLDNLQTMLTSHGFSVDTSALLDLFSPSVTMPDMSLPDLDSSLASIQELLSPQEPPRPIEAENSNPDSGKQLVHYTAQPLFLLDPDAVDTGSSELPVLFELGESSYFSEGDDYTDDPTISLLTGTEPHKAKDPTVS

[14] = viability loss in HEK293 cells – cell-based, plate reader, cherry-picked samples, cytotoxicity control, dose response (AID 743446); type: functional
[15] = A549 cell cytotoxicity, dose response, cytotoxicity control, plate reader, cherry-pick, antagonist series (AID 743412); type: functional, cell-based
[16] = blockers of bursicon-stimulated LGR2 cAMP reporter – cell-based, HEK293, CRE-luciferase reporter, cherry pick, set 2, dose response (AID 743343); type: functional;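 further: transfected cells were stimulated with diluted bursicon conditioned medium after compound addition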
[17] = blockade of melanocortin 4 receptor signaling – cell-based, plate reader, cherry pick, counter-screen for LGR2 antagonist project, dose response (AID 743444); type: functional;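 further: transfected HEK 293 cells stimulated with alpha-MSH peptide; potency of inhibitors of the alpha-MSH evoked signal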
P388 = test: cells; type: functional; details: Mus musculus
P388/ADR = test: cells; type: functional; details: Mus musculus
SN12K1 = test: cells; type: functional; details: Homo sapiens
[18] = growth inhibition of PfATP4-mutant resistant parasites – NITD609-resistant line, SYBR Green, dry powder, dose response (AID 1159571); type: functional, cell-based;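 further: parasites synchronized at ring stage by sorbitol before testing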
[19] = Dd2 malaria parasite growth inhibition potency – SYBR Green, dry powder samples, dose response (AID 1159566); type: functional, cell-based;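 further: potency for growth inhibition with lower SYBR green DNA signal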
[20] = P. falciparum Dd2 growth inhibitors, dose response, SYBR Green, cherry-picked samples (AID 1159567); type: functional, cell-based
[21] = growth inhibition of yeast DHODH-expressing 3D7 parasites – SYBR Green, dry powder samples, dose response (AID 1159570); type: functional, cell-based;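 further: parasite growth measured after 72 hours of compound exposure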
[22] = OVCAR8 cell viability loss – plate reader, dry powder samples, PAX8 project, dose response (AID 743197); type: functional, cell-based; details: OVCAR-8
Paired box protein Pax-8 = Paired box protein Pax-8 (Homo sapiens, UniProt Q06710); test: PAX8 transcriptional activity inhibition in RMG-I – RMG-I cells, luciferase, cherry-pick, dose response (AID 687027); type: functional, cell-based;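 further: luciferase reporter driven by Pax8 target thyroperoxidase promoter measured by SteadyGlo luminescence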
[23] = blockers of HIV-1 ZM109 envelope-driven cell-cell fusion – HeLa effector, CEM target cells, luciferase, cherry-pick, dose response (AID 652058); type: functional, cell-based;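 further: luciferase signal from HIV-1 Env mediated cell-cell fusion of effector and target cells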
[24] = HIV-1 AD8 envelope cell-cell fusion blockers – cherry-pick, dose response (AID 652062); type: functional, cell-based;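 further: luciferase signal from cell-cell fusion driven by HIV-1 clade B AD8 Env; potency is for inhibitors of fusion seen as a drop in luminescence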
[25] = blockers of HIV-1 envelope-mediated cell-cell fusion – cherry-pick, dose response (AID 652057); type: functional, cell-based

Sequence of Peroxisome proliferator-activated receptor gamma/Nuclear receptor coactivator 2 (P37231 whole entry): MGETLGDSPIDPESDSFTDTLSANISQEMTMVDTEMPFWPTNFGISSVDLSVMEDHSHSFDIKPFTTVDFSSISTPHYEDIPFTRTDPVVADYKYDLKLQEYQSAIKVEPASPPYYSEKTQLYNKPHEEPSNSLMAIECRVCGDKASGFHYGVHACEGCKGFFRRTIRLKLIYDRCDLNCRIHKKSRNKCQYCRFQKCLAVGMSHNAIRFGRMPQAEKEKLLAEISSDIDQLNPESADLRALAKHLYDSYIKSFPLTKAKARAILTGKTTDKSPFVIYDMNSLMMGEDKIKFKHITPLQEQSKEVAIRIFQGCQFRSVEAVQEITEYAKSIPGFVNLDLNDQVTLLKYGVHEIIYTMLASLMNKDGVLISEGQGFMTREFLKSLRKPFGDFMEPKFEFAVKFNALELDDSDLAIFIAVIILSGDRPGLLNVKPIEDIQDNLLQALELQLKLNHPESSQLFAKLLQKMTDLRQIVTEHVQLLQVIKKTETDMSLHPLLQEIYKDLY
Sequence of Peroxisome proliferator-activated receptor gamma/Nuclear receptor coactivator 2 (Q15596 whole entry, further chain): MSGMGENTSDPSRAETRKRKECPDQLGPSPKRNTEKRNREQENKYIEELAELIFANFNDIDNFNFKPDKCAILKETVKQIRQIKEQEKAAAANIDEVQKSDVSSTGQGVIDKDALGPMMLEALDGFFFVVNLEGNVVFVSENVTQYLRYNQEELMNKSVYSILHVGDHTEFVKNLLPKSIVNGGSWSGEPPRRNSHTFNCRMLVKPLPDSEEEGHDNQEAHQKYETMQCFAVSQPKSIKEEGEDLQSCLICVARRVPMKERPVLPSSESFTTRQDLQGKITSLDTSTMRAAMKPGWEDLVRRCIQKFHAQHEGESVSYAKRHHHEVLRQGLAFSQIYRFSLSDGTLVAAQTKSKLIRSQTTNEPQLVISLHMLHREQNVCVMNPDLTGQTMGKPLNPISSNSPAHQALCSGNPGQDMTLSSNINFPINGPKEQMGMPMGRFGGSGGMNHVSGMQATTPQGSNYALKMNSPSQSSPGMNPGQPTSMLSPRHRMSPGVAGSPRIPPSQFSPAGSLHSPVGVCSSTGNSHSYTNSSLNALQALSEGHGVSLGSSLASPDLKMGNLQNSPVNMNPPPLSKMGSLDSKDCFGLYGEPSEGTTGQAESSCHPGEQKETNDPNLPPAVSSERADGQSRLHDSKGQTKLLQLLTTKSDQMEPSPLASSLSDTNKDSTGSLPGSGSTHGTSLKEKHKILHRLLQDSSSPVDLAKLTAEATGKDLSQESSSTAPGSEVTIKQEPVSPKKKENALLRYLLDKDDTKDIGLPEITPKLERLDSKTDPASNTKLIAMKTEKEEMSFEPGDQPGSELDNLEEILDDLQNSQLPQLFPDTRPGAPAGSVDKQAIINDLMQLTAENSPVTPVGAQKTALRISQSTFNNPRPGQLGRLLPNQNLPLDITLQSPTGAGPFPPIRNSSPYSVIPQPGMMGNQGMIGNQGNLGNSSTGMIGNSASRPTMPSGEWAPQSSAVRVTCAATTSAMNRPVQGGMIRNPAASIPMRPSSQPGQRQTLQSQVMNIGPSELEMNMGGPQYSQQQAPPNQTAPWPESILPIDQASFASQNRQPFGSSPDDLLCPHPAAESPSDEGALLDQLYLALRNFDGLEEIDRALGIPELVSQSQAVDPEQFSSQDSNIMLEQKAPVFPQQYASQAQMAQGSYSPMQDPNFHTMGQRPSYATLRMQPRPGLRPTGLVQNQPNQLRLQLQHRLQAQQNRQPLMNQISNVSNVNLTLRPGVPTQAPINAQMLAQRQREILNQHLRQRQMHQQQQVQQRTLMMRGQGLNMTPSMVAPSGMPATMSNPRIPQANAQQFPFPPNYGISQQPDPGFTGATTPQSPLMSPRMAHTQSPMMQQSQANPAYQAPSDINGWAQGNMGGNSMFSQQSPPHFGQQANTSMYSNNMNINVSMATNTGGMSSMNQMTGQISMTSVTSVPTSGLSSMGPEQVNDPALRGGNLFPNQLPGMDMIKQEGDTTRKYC
Sequence of Peroxisome proliferator-activated receptor gamma/Nuclear receptor coactivator 3 (P37231 whole entry): as the sequence (P37231 whole entry) above
Sequence of Peroxisome proliferator-activated receptor gamma/Nuclear receptor coactivator 3 (Q9Y6Q9 whole entry, further chain): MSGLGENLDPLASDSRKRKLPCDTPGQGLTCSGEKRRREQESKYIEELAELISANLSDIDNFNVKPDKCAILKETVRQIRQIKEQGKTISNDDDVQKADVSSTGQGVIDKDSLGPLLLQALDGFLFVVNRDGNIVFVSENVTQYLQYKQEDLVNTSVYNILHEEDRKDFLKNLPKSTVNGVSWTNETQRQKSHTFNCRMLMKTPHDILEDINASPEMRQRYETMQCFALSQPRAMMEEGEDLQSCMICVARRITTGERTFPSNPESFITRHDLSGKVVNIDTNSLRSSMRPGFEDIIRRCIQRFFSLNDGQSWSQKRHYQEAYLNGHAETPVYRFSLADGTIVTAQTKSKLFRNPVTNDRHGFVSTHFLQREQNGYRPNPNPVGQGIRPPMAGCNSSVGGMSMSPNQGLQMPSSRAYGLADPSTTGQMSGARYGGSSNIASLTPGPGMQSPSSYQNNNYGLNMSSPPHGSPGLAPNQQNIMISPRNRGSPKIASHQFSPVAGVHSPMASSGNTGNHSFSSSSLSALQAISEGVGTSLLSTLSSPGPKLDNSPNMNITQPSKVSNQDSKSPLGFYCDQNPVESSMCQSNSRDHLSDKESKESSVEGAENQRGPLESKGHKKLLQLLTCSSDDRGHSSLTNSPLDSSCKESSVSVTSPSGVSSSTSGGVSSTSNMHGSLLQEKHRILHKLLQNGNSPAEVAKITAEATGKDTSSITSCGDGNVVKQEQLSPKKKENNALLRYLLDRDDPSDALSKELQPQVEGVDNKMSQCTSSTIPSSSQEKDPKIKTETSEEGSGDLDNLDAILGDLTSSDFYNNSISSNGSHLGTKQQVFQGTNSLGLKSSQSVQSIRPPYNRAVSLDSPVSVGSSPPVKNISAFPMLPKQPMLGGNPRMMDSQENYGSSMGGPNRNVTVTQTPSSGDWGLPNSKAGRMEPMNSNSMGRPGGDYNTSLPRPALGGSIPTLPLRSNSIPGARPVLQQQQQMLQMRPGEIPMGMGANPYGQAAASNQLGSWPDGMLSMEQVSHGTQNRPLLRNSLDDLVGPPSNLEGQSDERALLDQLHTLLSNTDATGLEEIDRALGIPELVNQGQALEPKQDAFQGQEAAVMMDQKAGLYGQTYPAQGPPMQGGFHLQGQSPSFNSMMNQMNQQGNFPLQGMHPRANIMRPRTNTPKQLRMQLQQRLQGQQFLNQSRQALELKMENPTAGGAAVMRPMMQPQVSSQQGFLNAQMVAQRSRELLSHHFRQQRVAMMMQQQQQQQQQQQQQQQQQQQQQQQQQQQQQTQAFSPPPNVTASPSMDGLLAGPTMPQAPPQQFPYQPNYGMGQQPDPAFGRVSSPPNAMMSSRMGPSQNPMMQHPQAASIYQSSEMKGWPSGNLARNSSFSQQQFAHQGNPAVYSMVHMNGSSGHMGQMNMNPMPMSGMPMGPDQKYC
Sequence of Phospholipase A2 (P04054 whole entry): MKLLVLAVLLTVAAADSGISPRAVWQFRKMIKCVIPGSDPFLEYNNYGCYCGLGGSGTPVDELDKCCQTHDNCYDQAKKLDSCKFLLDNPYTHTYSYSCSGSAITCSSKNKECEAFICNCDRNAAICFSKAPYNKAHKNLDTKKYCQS
Sequence of Paired box protein Pax-8 (Q06710 whole entry, the tested form may be a part): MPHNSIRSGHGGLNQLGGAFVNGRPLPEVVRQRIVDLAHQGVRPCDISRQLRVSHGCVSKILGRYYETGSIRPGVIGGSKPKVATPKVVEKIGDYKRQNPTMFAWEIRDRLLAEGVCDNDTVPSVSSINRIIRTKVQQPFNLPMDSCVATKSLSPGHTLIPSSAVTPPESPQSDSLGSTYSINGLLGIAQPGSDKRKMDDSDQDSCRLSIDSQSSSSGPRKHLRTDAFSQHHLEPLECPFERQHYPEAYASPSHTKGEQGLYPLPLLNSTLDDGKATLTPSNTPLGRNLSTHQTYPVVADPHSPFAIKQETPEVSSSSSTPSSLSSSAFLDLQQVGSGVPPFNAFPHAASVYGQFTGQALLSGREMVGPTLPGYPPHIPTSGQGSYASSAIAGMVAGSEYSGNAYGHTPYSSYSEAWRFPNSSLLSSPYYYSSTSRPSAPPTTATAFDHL

COc1ccc(C(C)=O)cc1COC(=O)c1ccc2ccccc2n1
IC50 (cells): 10.4 µM (active)

COc1cc(OC)cc(-c2nc3ccccc3c(=O)n2OC(=O)c2ccc(C)c(C)c2)c1
IC50 (Phospholipase A2): 5.9 µM (active) | IC50 (Cysteine protease ATG4B): 4.38 µM (active)

CCn1c(=O)c(C(=O)Nc2ncccc2C)c(O)c2ccccc21
IC50 (cells): 45.2 µM (active) | EC50 [1]: > 150 µM (inconclusive) | EC50 [2]: 0.119 µM (active)

CN1C(=O)C(N=Nc2ccccc2C(=O)O)N(C)C1=S (stereo not drawn)
IC50 (Phospholipase A2): 10.3 µM (active) | IC50 (Cysteine protease ATG4B): 16.1 µM (active)

O=c1c2ccccc2nc(-c2ccc(-c3ccccc3)cc2)n1-c1ccncc1
EC50 [3]: 0.398 µM (active) | EC50 [4]: > 60 µM (not active) | AC50 [5]: 2.73 µM (active)

COc1ccc(NC(=O)CC2Nc3cccc4cccc(c34)NC2=O)cc1 (stereo not drawn)
CC50 [6]: > 40 µM (active)

Cc1ccc(NCCC(=O)c2cccs2)cc1Cl
IC50 (cells): 28.8 µM (active)

COc1ccc(-c2cc(-c3cccs3)c(C#N)c(SCC(=O)NCc3ccccc3OC)n2)cc1
EC50 [7]: 8.22 µM (active) | EC50 [8]: 10.3 µM (not active) | EC50 [9]: 13 µM (not active)

CC(=O)Nc1ccc(OCC(O)CNC2CCCC2)cc1 (stereo not drawn)
CC50 [6]: > 40 µM (active)

Cc1nn(-c2ccccn2)c2c1-c1nc(N3CCOCC3)ncc1CC2
EC50 [7]: > 79.4 µM (not active) | EC50 [8]: > 79.4 µM (not active) | EC50 [9]: > 79.4 µM (not active)

COc1ccc(NC(=O)NNc2cc(N3CCOCC3)nc(N3CCOCC3)n2)cc1
IC50 [10]: 9.34 µM (active) | IC50 [11]: 7.36 µM (active)

CCCn1c(NC(=O)c2ccco2)nc2ccccc21
CC50 [6]: > 40 µM (active)

Oc1ccc(C2=NN(c3ccccc3)C(c3ccc(F)cc3)C2)cc1 (stereo not drawn)
AC50 [12]: 2.97 µM (active) | AC50 [5]: 4.34 µM (active) | EC50 [13]: > 195 µM (not active)

COc1cc(=O)n(C)c2c(O)cccc12
IC50 [10]: 11.5 µM (active) | IC50 [11]: > 100 µM (inactive)

Cc1ccc2[nH]c(CCc3nc4cc(C)ccc4[nH]3)nc2c1
IC50 (cells): 35.3 µM (active)

Cc1cccc(-n2c(-c3cccs3)nc3ccccc3c2=O)c1
IC50 (Phospholipase A2): 7.49 µM (active) | IC50 (Cysteine protease ATG4B): 10 µM (active)

CC(C)(C)OC(=O)N1Cc2ccccc2C[C@H]1C(=O)O
IC50 [10]: 12.8 µM (active) | IC50 [11]: > 100 µM (inactive)

CCOc1cccc2cc(C(=O)Nc3cc(C)on3)c(=O)oc12
EC50 [7]: 22.4 µM (not active) | EC50 [8]: 24.6 µM (not active) | EC50 [9]: 30.1 µM (not active)

Cc1ccc(Nc2nc3ccccc3s2)c(C)c1
AC50 [14]: > 52 µM (inactive) | AC50 [15]: 37.8 µM (active) | AC50 [16]: 16.1 µM (active) | AC50 [17]: 14.3 µM (active)

CC(C)(C)C(O)C(Cc1ccccc1Cl)n1cncn1 (stereo not drawn)
AC50 [5]: < 0.195 µM (active)

CC(OC(=O)c1cc2sccc2n1C)C(=O)NCc1cccs1 (stereo not drawn)
EC50 [7]: > 79.4 µM (not active) | EC50 [8]: > 79.4 µM (not active) | EC50 [9]: > 79.4 µM (not active)

COC/C=C/C1=CC2=CC(=O)C(C)(OC(=O)c3cnc4ccccc4n3)C(=O)C2=CN1CCOC (stereo not drawn)
IC50 [10]: 11.5 µM (active) | IC50 [11]: 13.1 µM (active)

COc1ccc(N2C(=O)Cc3ccccc3C2=O)cc1
IC50 [10]: 5.08 µM (active) | IC50 [11]: > 100 µM (inactive)

CN(C)CCNC(=O)c1cccc2ccc(-c3ccc(Br)cc3)nc12
GI50 (P388): 0.374 µM (active) | GI50 (P388/ADR): 0.512 µM (active) | GI50 (SN12K1): 0.895 µM (active)

COc1ccc(C2COc3c(ccc(O)c3C)C2)cc1OC (stereo not drawn)
GI50 (P388): 40.9 µM (inactive) | GI50 (P388/ADR): 35.9 µM (inactive) | GI50 (SN12K1): 45.8 µM (inactive)

O=C1C=CN(C2OC(CO)C(O)C2O)C(=O)C1 (stereo not drawn)
GI50 (P388): 0.718 µM (active) | GI50 (P388/ADR): 0.843 µM (active)

CCCNC(=O)c1cc2c(c(-c3cccc(-c4cc5ccccc5o4)c3)n1)[C@H](CCO)N(C(=O)NC(C)C)C2
AC50 [18]: 2.39 µM (active) | AC50 [19]: 1.75 µM (active) | AC50 [20]: 1.87 µM (active) | AC50 [21]: 2.97 µM (active)

CCCC#Cc1ccc2c(c1)O[C@H](CN(C)Cc1ccccc1)[C@@H](C)CN([C@H](C)CO)S2(=O)=O
AC50 [22]: 58.3 µM (active) | AC50 (Paired box protein Pax-8): 16.2 µM (active)

COc1ccc(NC(=O)Nc2ccc3c(c2)C(=O)N([C@@H](C)CO)C[C@H](C)[C@H](CN(C)S(=O)(=O)c2ccc(Cl)cc2)O3)cc1
AC50 [23]: 4.73 µM (active) | AC50 [24]: 5.38 µM (active) | AC50 [25]: 5.71 µM (active)

C[C@H]1CN([C@@H](C)CO)C(=O)Cc2cc(NC(=O)C3CCCCC3)ccc2O[C@H]1CN(C)S(=O)(=O)c1ccc(Cl)cc1
AC50 [23]: 6.75 µM (active) | AC50 [24]: 22.6 µM (active) | AC50 [25]: 8.97 µM (active)

Cc1ccccc1S(=O)(=O)N(C)C[C@@H]1OCc2ccccc2-c2c(n(C)c3ccccc23)C(=O)N([C@@H](C)CO)C[C@@H]1C
AC50 [18]: 0.812 µM (active) | AC50 [19]: 0.659 µM (active) | AC50 [20]: 1.63 µM (active) | AC50 [21]: 1.02 µM (active)

CC(=O)OCC1OC(NC(=O)N(CCCl)N=O)C(OC(C)=O)C(OC(C)=O)C1OC(C)=O (stereo not drawn)
GI50 (P388): 26.7 µM (inactive) | GI50 (P388/ADR): 44.9 µM (inactive) | GI50 (SN12K1): > 100 µM (inactive)

CC(=O)OC(C)(C)/C=C/C(=O)[C@](C)(O)[C@H]1[C@H](O)C[C@@]2(C)[C@@H]3CC=C4[C@@H](C=C(O)C(=O)C4(C)C)[C@]3(C)C(=O)C[C@]12C [CUCURBITACIN E]
GI50 (P388): 0.0379 µM (active) | GI50 (P388/ADR): 0.0375 µM (active) | GI50 (SN12K1): 0.0336 µM (active)
